Source: US7041275B2, “Irrigating fluid” (priority 2001, dated 2006)

Key:
[1] = pig, in vivo
Protocol: To a bag with 3 L fluid 300 mL of nitrous oxide (=0,18 mg nitrous oxide/mL irrigagting fluid) were added. The nitrous oxide was measured with a 300 mL glass syringe and injected into the bag using the syringe connection. The temperature was abut 22° C. and the air pressure about 1015 mbar (not measured but estimated via meteorological service). Before the addition of nitrous oxide the gas in the bag was removed, about 1 mL remained. After the addition of nitrous oxide the bag was shaken until the nitrous oxide was dissolved. A gas bubble with a volume of abut 15 mL remained.
The weight of the pig was 19 kg. Ventilation 3L/min with 20 breaths per minute, 25% inhalation followed by 10% pause. At the first test 300 mL of irrigating fluid were injected intravenously during 20 min using a dosing pump.

[2] = Nitrous oxide concentration in exhaled air of pigs after injection of irrigating fluid containing nitrous oxide; format: in vivo, pig
Source text: A Telair N2O monitor type 2001 L was used to measure the nitrous oxide concentration. The measuring range of the instrument was 0–1000 ppm.
As the analyser was sensitive also to carbon dioxide an absorber containing soda lime to remove the carbon dioxide was arranged before the analyser. During the absorption process water is formed which together with the moisture in the exhaled air can disturb the measurements. A layer of silica gel after the soda lime absorber was used to eliminate this problem.
The sample gas pump gave a sample flow of 300 mL/min.
The pump was continuously pumping gas. The measured concentration was a time weighted average for the exhaled and inhaled gas.
The weight of the pig was 19 kg.
The weight of the pig was 21 kg. Ventilation as for pig. 1. First 300 mL of irrigating fluid were injected intraperitonally during 20 minutes. The initial decrease in nitrous oxide concentration was caused by placing the needle in the wrong place. Some mL were injected before the injection was stopped and the test restarted. The decrease is the decay phase from the first injection.
In test two 600 mL were administered intravenously during 20 minutes.
Weight 23 kg. Ventilation […], the rest as for pig 1. First a number of tests with intravenous injection of pulses of fluid were performed. The volumes added were 2, 10 and 20 mL. Approximately 1 mL/s was added.
Then 150 mL of fluid were administered intravenously during 20 minutes. The discontinuity in the diagram was caused by testing another ventilator setting which affected the reading so much that the data point was not used. After 40 minutes 600 mL of irrigating fluid were added intravenously during 20 minutes.
The nitrous oxde concentration values are measured concentrations minus the starting point value. In some cases a test was started while the nitrous oxide concentration from the previous test was still decreasing. As the base line was not stable, the values at the end of the decay phase are uncertain. This can be seen in FIG. 4, where it looks like the 150 mL concentration values are stabilizing at a higher level than the 600 mL values.

[3] = intraperitoneal injection of irrigating fluid, exhaled air
[4] = intravenous injection of irrigating fluid, exhaled air

| Structure (SMILES) | highest measured ethanol concentration [1] [%] | decrease of concentration in exhaled air compared with ethanol ([2]; data normalised to similar peak heights, pig 1, intravenous) | time before the nitrous oxide concentration started to increase [2, 3] [min] | time to 50% of the final concentration after the start of the increase [2, 3] | time after start of injection until nitrous oxide concentration started to increase [2, 4] | time to 50% of the final concentration after the concentration started to increase [2, 4] | measured nitrous oxide concentration used in mass balance ([2]; pig 3, 30 mL/min irrigating fluid intravenously, time weighted average of exhaled and inhaled gas) [ppm] | exhaled nitrous oxide (mass balance) ([2]; pig 3, added amount of nitrous oxide 3,0 mL/min) | increase of nitrous oxide concentration per mL of irrigating fluid ([2]; pulses of fluid added intravenously (2, 10, 20 mL), exhaled air, pig 3) | time of peak reading after start of injection ([2]; pulses of fluid added intravenously, exhaled air) |
| --- | --- | --- | --- | --- | --- | --- | --- | --- | --- | --- |
| CCO [ethanol] | 0.20 | – | – | – | – | – | – | – | – | – |
| [N-]=[N+]=O [nitrous oxide] | – | decreased much faster than the ethanol | 2.5 | about 5 minutes | about 15 seconds | about one | 520 | 3,0 mL/min | 10–15 ppm per mL | about 30 seconds |
